Holding throughout (type): in vivo, human
A short description of experiment [1]: Trial 2: intraocular pressure reduction (Goldmann applanation tonometry) in primary open angle glaucoma patients. To be noted: for average IOP decrease measured per patient: approximately 8 hours after dosing. The procedure:
Trial 2 compared the efficacy (dose volume equivalence) of 0.005% w/v latanoprost for intraocular pressure reduction when delivered via AcuStream™ (pre-trial calibration volume=9.2 μl) versus the standard eye dropper for topical drug delivery (approximate volume=30 μl).
Patients included in Trial 2 have previously been diagnosed with primary open angle glaucoma on the basis of intraocular pressure and visual field testing, fundus examination or optical coherence tomography (OCT) data and are currently on prostaglandin analog medical therapy. Patients with corneal abnormalities that would interfere with accurate IOP measurements with applanation tonometry, use of an oral or topical ophthalmic steroids within the past 14 days from screening date, any active ocular surface or anterior segment disease, or progressive field loss during the past year were excluded from the study. Thirteen men and five women participated in the trial.
Recruited patients were taken off medical therapy for a period of 3-4 weeks prior to the study to allow drug “wash out”, thereby elevating their IOPs to pre-treatment levels which was confirmed by examination of the patients' chart history. Patients were randomly assigned as “test” (AcuStream™), or “control” (standard eye dropper). The mean age of the control group and test group were 61.0 years and 65.2 years, respectively.
The patients assigned to either the “test” or “control” group by means of a random numbers table in order to mitigate any potential cross-over effects that could confound data interpretation. An odd number dictated that the patient was in the test group, while even-numbered patients were in the control group.
After performing slit lamp examinations on each patient to verify eligibility and obtaining informed consent, intraocular pressure (IOP) was measured by a sole experienced examiner who was blind to the randomized conditions. A pre-calibrated Goldmann applanation tonometer coupled to a Haag-Streit 900 EQ slit lamp was used to conduct baseline IOP measurements. Once baseline IOP data were verified to be equivalent to pre-medical therapy levels (based on patient's treatment history), the patient then continued to the dosing stage of the study.
Latanoprost solution was administered by a sole ophthalmologist to both eyes of each patient, based on the pre-determined randomized condition.

A short description of experiment [2]: Pupil diameter after self-administered pilocarpine micro-dose (presbyopia). Particulars: non-dosed fellow eye. The method, then:
(§1) A 10 μl micro-dose of a 1% pilocarpine solution was self-administered using an electromagnetic actuated fluid delivery device, e.g., as described above, by three subjects to their own eye. The age range of the subjects was 52 years to 68 years, and all subjects were male. The pilocarpine micro-dose was self-administered by the subjects.
(§2) Baseline, pre-dose values of pupil diameter and near visual acuity in both eyes prior to dosing was measured for all subjects, and then following the baseline measurements, the subjects were dosed in only one eye (the eye with the poorer visual acuity) with the micro-dose pilocarpine solution. Approximately 45 to 60 minutes after dosing, pupil diameter and near visual acuity were again tested. Near visual acuity was measured using a Snellen card at a distance of 40 cm. A tabulation of results is given below in Table A.

The nature of experiment [3]: Near visual acuity (Snellen card at 40 cm) after pilocarpine micro-dose (presbyopia). Particulars: dosed eye. The method, then: as §1, §2

As to `CC(C)OC(=O)CCC/C=C\C[C@@H]1[C@@H](CC[C@@H](O)CCc2ccccc2)[C@H](O)C[C@@H]1O` [latanoprost], the “average IOP decrease measured per patient” value in experiment [1] (AcuStream (test group)) amounted to 5.0 mm Hg; in experiment [1] (standard eye dropper (control group)), 4.3 mm Hg. The “difference in IOP reduction between AcuStream and standard dropper groups” value in experiment [1] (Wilcoxon Ranked Sum test, p=0.3447) is given as “no statistically significant differences”. The “post-instillation IOP, single patient outlier” value in experiment [1] (control group (standard dropper), OD, baseline IOP 30 mm Hg) came to 17 mm Hg. In experiment [1] (human, in vivo), the “equivalence of 9.2 μl AcuStream dose volume to 30 μl standard eye drops, intraocular pressure reduction” value is “pharmacodynamic equivalence”.

For `CC[C@@H]1C(=O)OC[C@@H]1Cc1cncn1C` [pilocarpine], the “miotic effect in non-dosed eye” value in experiment [2] is “no miotic effect”. Moreover, the “mean improvement in near visual acuity” value in experiment [3] (all subjects) came to 2 lines. Moreover, in experiment [3] (mean of 3 subjects), the “# of lines change in visual acuity” value is 2 lines.

The record behind these values is patent publication US20190314197A1, “Topical Ocular Delivery Methods and Devices for Use in the Same” (Kedalion Therapeutics, Inc., priority 2018, published 2019).
